Reference: paper PMC11054906 (Pharmaceuticals, 2024)

How the values were obtained:
[1] = Population PK analysis (NLME, Monolix) of empagliflozin plasma concentrations from two phase 1 crossover studies; type: in vivo, healthy Korean subjects
Text: Data from two clinical studies (NCT03849495 and NCT03848637) were used in this study to develop the PK model and conduct population PK analysis. Both of the studies were randomized, open-label, two-period, two-sequence, crossover studies comparing the PK characteristics, safety and tolerability profiles of the two study drugs in healthy Korean subjects. Healthy subjects aged between 19 and 50 years with BMIs of 18–27 kg/m^2 were recruited for both studies. Subjects without any clinically significant medical history, and without any clinically significant findings in physical examinations, vital signs, 12-lead electrocardiograms (ECG), and clinical laboratory test results were eligible for the studies. Subjects who could not abstain from alcohol, smoking, or drug use throughout the study were excluded. To ensure safety, subjects with any allergies to the study medications were also excluded. Adverse drug reactions were assessed throughout the study period, and the monitoring of physical examinations, vital signs, 12-lead ECG, and laboratory tests was also performed.
Demographic data, clinical laboratory data, and time–plasma concentration data were pooled to develop a population PK model.
Blood samples were collected before drug administration (0 h) and 0.33 h, 0.67 h, 1 h, 1.5 h, 2 h, 2.5 h, 3 h, 4 h, 6 h, 8 h, 10 h, 12 h, 24 h, 34 h, and 48 h after study’s drug administration in the first study. In the second study, blood samples were also collected at 3.5 h and 5 h. Thus, a total of 16 and 18 blood samples were collected from each healthy volunteer in the two clinical studies, respectively. […] In the second study, the plasma concentrations of empagliflozin were quantified by using liquid chromatography–mass spectrometry (LC–MS) equipped with API 4000 (SCIEX; multiple reaction monitoring, electrospray ionization, and positive SCIEX mode). All experiments adhered to the standards of good laboratory practice as described previously. The calibration ranges in these two studies were 2–1500 ng/mL and 0.5–150 ng/mL, respectively.
The population PK analysis was conducted using a nonlinear mixed effect (NLME) modeling method with Monolix® Suite 2021R1 (Lixoft, Antony, France). The stochastic approximation expectation maximization (SAEM) algorithm was implemented, and model qualification was performed using a likelihood ratio test, Bayesian information criterion (BIC), goodness-of-fit (GOF) diagnostic plots, and visual predictive checks (VPCs). Various compartment models with lag time, transit compartment, and Weibull absorption were established to construct the base PK model.
After the development of the base model, interindividual variability (IIV), interoccasion variability (IOV), and residual errors were added to the model. Because of the crossover study design, the random variation in the population PK parameters was described by both the IIV and IOV, with all the individual parameters considered to be log-normally distributed. IIV and IOV were sequentially implemented, and the parameters were subsequently removed or fixed at low values when converging to zero. The exponential random effects terms for the IIV and IOV are shown in Formulas (2) and (3), respectively. (2) Pi=θk×e^ηi where Pi represents the parameter value k from individual i and θk describes the population value of parameter k. ηi denotes the difference between Pi and θk. (3) Pi,occ=θk×e^ηi+Kkiq where Pi,occ is the individual parameter value k from individual i at occasion q that differs from the typical individual value by an additional random effect Kkiq. An occasion was characterized as the time period from the start of an infusion until the start of the next administration. ηki and Kkiq were assumed to be symmetrically distributed with a zero mean and a variance of σ^2 and γ^2, respectively. […]

[2] = design: method as in PMID 23940010, PMID 27312794, PMID 29251772, PMID 24964723; settings: cited from earlier work
[3] = 1000 bootstrap resampling, interindividual variability
[4] = 1000 bootstrap resampling, interoccasion variability
[5] = final model, oral single dose, both formulations pooled

Structure (SMILES): OC[C@H]1O[C@@H](c2ccc(Cl)c(Cc3ccc(O[C@H]4CCOC4)cc3)c2)[C@H](O)[C@@H](O)[C@@H]1O [empagliflozin, Empagliflozin]
- CL, median of bootstrap (95% CI) ([1]; 1000 bootstrap resampling): 8.21 (7.945–8.465) L/h
- Ka, median of bootstrap (95% CI) ([1]; 1000 bootstrap resampling): 0.25 (0.23–0.275) h^−1
- Ktr, median of bootstrap (95% CI) ([1]; 1000 bootstrap resampling): 8.94 (6.766–11.728) h^−1
- Mtt, median of bootstrap (95% CI) ([1]; 1000 bootstrap resampling): 0.64 (0.526–0.725) h
- Q, median of bootstrap (95% CI) ([1]; 1000 bootstrap resampling): 4.66 (3.979–5.456) L/h
- V1, median of bootstrap (95% CI) ([1]; 1000 bootstrap resampling): 0.64 (0–1.889) L
- V2, median of bootstrap (95% CI) ([1]; 1000 bootstrap resampling): 43.93 (41.255–47.171) L
- b (residual variability), median of bootstrap (95% CI) ([1]; 1000 bootstrap resampling): 0.16 (0.141–0.175)
- βCL_logWT, median of bootstrap (95% CI) ([1]; 1000 bootstrap resampling): 0.64 (0.366–0.926)
- βV2_logWT, median of bootstrap (95% CI) ([1]; 1000 bootstrap resampling): 0.54 (0.221–0.851)
- ωCL, median of bootstrap (95% CI) [1, 3]: 0.12 (0.101–0.141)
- ωKa, median of bootstrap (95% CI) [1, 3]: 0.16 (0.116–0.208)
- ωV2, median of bootstrap (95% CI) [1, 3]: 0.13 (0.1–0.172)
- γCL, median of bootstrap (95% CI) [1, 4]: 0.04 (0.025–0.06)
- γKa, median of bootstrap (95% CI) [1, 4]: 0.04 (0.023–0.062)
- γKtr, median of bootstrap (95% CI) [1, 4]: 1.11 (0.858–1.334)
- γMtt, median of bootstrap (95% CI) [1, 4]: 0.44 (0.359–0.528)
- b, residual variability (proportional error) ([1]; final model): 0.16
- βV2_logWT (effect of log-transformed body weight on V2) ([1]; final model, covariate coefficient): 0.57
- Ktr (transit rate constant), population value ([1]; final model, oral single dose 25 mg or 5 mg (with metformin 1000 mg), both formulations pooled): 9.19 h⁻¹
- CL (clearance), population value [1, 5]: 8.21 L/h
- Ka (absorption rate constant), population value [1, 5]: 0.26 h⁻¹
- Mtt (mean transit time for absorption), population value [1, 5]: 0.63 h
- V1, population value [1, 5]: 0.6 L
- Mtt (mean transit time) ([1]; final two-compartment transit model): 37.8 min
- number of transit compartments ([1]; from Formula (1), Mtt and Ktr of the final model): 4.79
- γCL, interoccasion variability ([1]; presented as SD (CV)): 4.3%
- γKa, interoccasion variability ([1]; presented as SD (CV)): 0.029 (2.90) %
- γKtr, interoccasion variability ([1]; presented as SD (CV)): 1.17 (171.20) %
- γMtt, interoccasion variability ([1]; presented as SD (CV)): 0.42 (43.92) %
- ωCL, interindividual variability ([1]; presented as SD (CV)): 0.12 (12.04) %
- ωV2, interindividual variability ([1]; presented as SD (CV)): 0.13 (13.06) %
- estimated Mtt ([2]; three transit compartment model): 30 min
- lag time (fixed) of lagged first-order oral absorption ([2]; two-compartment model): 0.5 h
